The values that follow come from US20240309007A1, “CRYSTALLINE FORMS OF 3-{4-[(2R)-2-AMINOPROPOXY]PHENYL}-N-[(1R)- 1-(3-FLUOROPHENYL) ETHYL]IMIDAZO[1,2-B]PYRIDAZIN-6-AMINE AND SALTS THEREOF” (ANHEART THERAPEUTICS (HANGZHOU) CO., LTD., priority 2021, published 2024).

Entries after “also recorded” stand apart in the source; their conditions may differ.

A short description of this series: Dynamic Vapor Sorption (DVS), hygroscopicity. The format is physicochemical. The conditions noted are these: for weight increase (DVS): at 80% RH, 25±1° C.; for hygroscopicity (in words): from DVS weight increase at 80% RH. On the procedure: Dynamic Vapor Sorption (DVS) was performed by using Intrinsic DVS (Surface Measurement Systems, UK). A sample was weighed in an amount of 20-30 mg and was placed in a sample chamber. The measurement was performed at DMDT mode when the temperature of the sample chamber was maintained at 25±1° C.

For the molecule `C[C@@H](N)COc1ccc(-c2cnc3ccc(N[C@H](C)c4cccc(F)c4)nn23)cc1` [crystalline form C of Compound 1 adipate, 3-{4-[(2R)-2-aminopropoxy]phenyl}-N-[(1R)-1-(3-fluorophenyl)ethyl]imidazo[1,2-b]pyridazin-6-amine], the “weight increase (DVS)” value was “about 1%” and the “hygroscopicity (in words)” value is listed as “low hygroscopicity”.

On to `C[C@@H](N)COc1ccc(-c2cnc3ccc(N[C@H](C)c4cccc(F)c4)nn23)cc1` [crystalline form B of Compound 1 adipate, 3-{4-[(2R)-2-aminopropoxy]phenyl}-N-[(1R)-1-(3-fluorophenyl)ethyl]imidazo[1,2-b]pyridazin-6-amine], for which the “weight increase (DVS)” value is given as “about 8.2%” and the “hygroscopicity (in words)” value is recorded as “has hygroscopicity”.

Consider `C[C@@H](N)COc1ccc(-c2cnc3ccc(N[C@H](C)c4cccc(F)c4)nn23)cc1` [crystalline form B of Compound 1 free base] [3-{4-[(2R)-2-aminopropoxy]phenyl}-N-[(1R)-1-(3-fluorophenyl)ethyl]imidazo[1,2-b]pyridazin-6-amine], for which the “crystalline form (XRPD) of the sample before and after the DVS test” value (“crystalline form (XRPD)” below) was “changed”; the “hygroscopicity (in words)” value is listed as “has hygroscopicity”.

On to `C[C@@H](N)COc1ccc(-c2cnc3ccc(N[C@H](C)c4cccc(F)c4)nn23)cc1` [crystalline form D of Compound 1 adipate, 3-{4-[(2R)-2-aminopropoxy]phenyl}-N-[(1R)-1-(3-fluorophenyl)ethyl]imidazo[1,2-b]pyridazin-6-amine], for which the “hygroscopicity (in words)” value was “low hygroscopicity”.

`C[C@@H](N)COc1ccc(-c2cnc3ccc(N[C@H](C)c4cccc(F)c4)nn23)cc1` [crystalline form D of Compound 1 free base] [3-{4-[(2R)-2-aminopropoxy]phenyl}-N-[(1R)-1-(3-fluorophenyl)ethyl]imidazo[1,2-b]pyridazin-6-amine]: the “crystalline form (XRPD)” value is recorded as “did not change”; the “weight increase (DVS)” value is reported as 2.896%; the “hygroscopicity (in words)” value is listed as “some hygroscopicity”.

Regarding `C[C@@H](N)COc1ccc(-c2cnc3ccc(N[C@H](C)c4cccc(F)c4)nn23)cc1` [crystalline form A of Compound 1 free base] [3-{4-[(2R)-2-aminopropoxy]phenyl}-N-[(1R)-1-(3-fluorophenyl)ethyl]imidazo[1,2-b]pyridazin-6-amine], the “crystalline form (XRPD)” value is reported as “did not change”; the “hygroscopicity (in words)” value is listed as “almost no hygroscopicity; also recorded: very low or nearly no hygroscopicity”.

`C[C@@H](N)COc1ccc(-c2cnc3ccc(N[C@H](C)c4cccc(F)c4)nn23)cc1` [crystalline form C of Compound 1 free base] [3-{4-[(2R)-2-aminopropoxy]phenyl}-N-[(1R)-1-(3-fluorophenyl)ethyl]imidazo[1,2-b]pyridazin-6-amine]: the “crystalline form (XRPD)” value is reported as “no crystalline form change”; the “hygroscopicity (in words)” value is reported as “has hygroscopicity”.
